Assay results: patent US7758856B2, “Bacteriophage for the treatment of bacterial biofilms” (Biocontrol Limited, priority 2003, dated 2010)
In brackets after ≈: the same amount, converted by molar mass.

Tests used:
[1] = CF patients, nebulisation twice a day (tobramycin 80 mg; Colistin 2 mega units); cited from earlier work
Ps. aeruginosa = experiment: Minimal inhibition concentration of tobramycin; format: cell-based; details: Pseudomonas aeruginosa
[2] = system: Ps. aeruginosa GH56 biofilms; experiment: In vitro biofilm model (chemostat and Robbins device, viable counts on PVC disks)

| MIC (Ps. aeruginosa) | Compound | serum levels [1] | effect on Ps. aeruginosa sessile (biofilm) population ([2]; four applications at MIC (4 mg L^-1), over 24 h / 48 h) | effect on biofilm viability / sessile population ([2]; tobramycin at 10xMIC, four applications) |
| --- | --- | --- | --- | --- |
| 4 µg/mL (≈ 8.56 µM) | NC[C@H]1O[C@H](O[C@H]2[C@H](O)[C@@H](O[C@H]3O[C@H](CO)[C@@H](O)[C@H](N)[C@H]3O)[C@H](N)C[C@@H]2N)[C@H](N)C[C@@H]1O [tobramycin] | unmeasurable | no significant effect | no significant effect |
|  | Colistin | unmeasurable |  |  |
